Assays:
[1] = biological target: T1, PAAN/MIF tautomerase activity (Homo sapiens, UniProt P14174); test: Tautomerase activity assay (D-dopachrome methyl ester); type: biochemical; details: 10 μM compounds
T1 construct: GST (N, cleaved yes); made in house; host or cells: Escherichia coli
T1 sequence (P14174 1-115): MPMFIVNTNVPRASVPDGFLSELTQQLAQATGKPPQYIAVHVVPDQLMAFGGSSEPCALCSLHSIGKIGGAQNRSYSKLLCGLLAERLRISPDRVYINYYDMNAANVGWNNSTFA
Procedure: Tautomerase activity assay. The keto-enol tautomeric conversion of D-dopachrome methyl ester by PAAN/MIF was used as described previously. See Bendraft et al. (1997) Biochemistry 36:15356-62. Briefly, a fresh solution of D-dopachrome methyl ester was prepared by mixing 2 mML-3,4 dihydroxyphenylalanine methyl ester with 4 mM sodium peroxidate for 5 m at room temperature and then placed directly on ice before use. The enzymatic reaction was initiated at 25° C. by adding 20 μl of the dopachrome methyl ester substrate to 200 μl of PAAN/MIF WT (final concentration 5 μM) with or without 10 μM compounds (compounds 41, 56, 76, and 77) in tautomerase assay buffer (50 mM potassium phosphate, 1 mM EDTA, pH 6.0). To enhance substrate stability, excess sodium meta-periodate was removed using […] disposable columns (Waters). The activity was determined by the decrease in absorbance at 475 nm using a spectrophotometer (Molecular Devices).

human cortical neurons [2] = test: Pulsed-field gel electrophoresis of α-syn PFF-induced DNA damage in human cortical neurons; type: cell-based
Procedure: (§1) Preparation and quantification of genomic DNA. The striatum was rapidly removed from the brain and lysed by repetitive pipetting with a micropipette in lysis buffer [100 mM NaCl, 10 mM Tris-HCl (pH 8.0), 25 mM EDTA (pH 8.0), 0.5% SDS] with 0.2 mg/ml proteinase K (Roche Diagnotics). Samples were incubated 55° C. for overnight and further incubated 85° C. for 45 m to inactivate proteinase K. The genomic DNA were immediately separated on a 1.2% pulse field certified agarose in 0.5×TBE buffer with initial switch time of 1.5 s and a final switch time of 3.5 s for 12 h at 6 V/cm. The gel was then stained with […] Ethidium Bromide (EtBr) and visualized on UV light. Noncleaved genomic DNA was quantified as percentage (%) of the total genomic DNA that included both noncleaved genomic DNA and cleaved genomic DNA in each individual group.
(§2) Preparation of human cortical neurons. Human H1 embryonic stem cells (ESCs) were differentiated into cortical neurons as previously described. See Xu et al. (2016) Sci. Transl. Med. 8:333ra48. Briefly, ESC colonies detached from mouse embryonic fibroblasts (MEFs) were grown in suspension in human ESC medium without FGF2 for 6 days in low-attachment six-well plates (Corning). On day 7, free-floating embyroid bodies (EB)s were transferred to Matrigel coated plates to allow the complete attachment of EB and formation of rosette neuronal aggregates (RONAs). […]

PARP-1 = biological target: T2, PARP-1 (Homo sapiens, UniProt P09874); test: In vitro ribosylation assay (IVRA) of PARP-1; type: biochemical; details: 1 μM
T2 construct: purchased Trevigen
Procedure: In vitro ribosylation assay of PARP-1. […] of recombinant PARP-1, activated DNA and NAD+(Trevigen) in the presence or absence of 1 μM of PARP-1 inhibitor, ABT-888 or PAAN/MIF inhibitors (compound 56 or 121) were incubated in the PARP assay buffer (Trevigen) for 30 m at room temperature and analyzed by immunoblot analysis using PAR antibody.

human cortical neurons [3] = test: α-syn PFF-induced cell death in human cortical neurons (Hoechst and PI staining); type: cell-based; details: pre-incubated 1 h, α-syn PFF 14 days
Procedure: as §2, with “(RONAs). RONAs were manually microisolated and maintained as neurospheres for 1 day and then dissociated into single cells and plated on laminin/poly-D-lysine-coated plates for further experiments.” for “(RONAs).”
Cell death and viability assessment. Primary cultured cortical neurons were treated with 5 μg/ml of α-syn PFF for 14 days and cell death was determined by staining of all nuclei with 7 μM Hoechst 33342 and dead cell nuclei with 2 μM propidium iodide (PI) (Invitrogen). The numbers of total and dead cells were counted with the Axiovision 4.6 software (Carl Zeiss). Cell viability was determined by fluorescence at an excitation wavelength 570 nm and an emission wavelength 585 nm using Alamar Blue (Invitrogen).

mouse cortical neurons = test: Pulsed-field gel electrophoresis of α-syn PFF-induced DNA damage in mouse cortical neurons; type: cell-based
Procedure: as §1
Cell culture, transfection, primary neuronal culture and treatment. SH-SY5Y cells (ATCC) were cultured in DMEM containing 10% fetal bovine serum and penicillin/streptomycin at 37° C. under 5% C02. The cells were transfected using PolyFect reagent (Qiagen). Parthanatos was induced by the treatment of 50 μM MNNG for 15 min in SH-SY5Y cells. ABT-888 or PAAN/MIF inhibitors were pretreated with indicated concentration 1 h before MNNG treatment and cell death were assessed after 24 h. […]

T2 sequence (P09874 whole entry): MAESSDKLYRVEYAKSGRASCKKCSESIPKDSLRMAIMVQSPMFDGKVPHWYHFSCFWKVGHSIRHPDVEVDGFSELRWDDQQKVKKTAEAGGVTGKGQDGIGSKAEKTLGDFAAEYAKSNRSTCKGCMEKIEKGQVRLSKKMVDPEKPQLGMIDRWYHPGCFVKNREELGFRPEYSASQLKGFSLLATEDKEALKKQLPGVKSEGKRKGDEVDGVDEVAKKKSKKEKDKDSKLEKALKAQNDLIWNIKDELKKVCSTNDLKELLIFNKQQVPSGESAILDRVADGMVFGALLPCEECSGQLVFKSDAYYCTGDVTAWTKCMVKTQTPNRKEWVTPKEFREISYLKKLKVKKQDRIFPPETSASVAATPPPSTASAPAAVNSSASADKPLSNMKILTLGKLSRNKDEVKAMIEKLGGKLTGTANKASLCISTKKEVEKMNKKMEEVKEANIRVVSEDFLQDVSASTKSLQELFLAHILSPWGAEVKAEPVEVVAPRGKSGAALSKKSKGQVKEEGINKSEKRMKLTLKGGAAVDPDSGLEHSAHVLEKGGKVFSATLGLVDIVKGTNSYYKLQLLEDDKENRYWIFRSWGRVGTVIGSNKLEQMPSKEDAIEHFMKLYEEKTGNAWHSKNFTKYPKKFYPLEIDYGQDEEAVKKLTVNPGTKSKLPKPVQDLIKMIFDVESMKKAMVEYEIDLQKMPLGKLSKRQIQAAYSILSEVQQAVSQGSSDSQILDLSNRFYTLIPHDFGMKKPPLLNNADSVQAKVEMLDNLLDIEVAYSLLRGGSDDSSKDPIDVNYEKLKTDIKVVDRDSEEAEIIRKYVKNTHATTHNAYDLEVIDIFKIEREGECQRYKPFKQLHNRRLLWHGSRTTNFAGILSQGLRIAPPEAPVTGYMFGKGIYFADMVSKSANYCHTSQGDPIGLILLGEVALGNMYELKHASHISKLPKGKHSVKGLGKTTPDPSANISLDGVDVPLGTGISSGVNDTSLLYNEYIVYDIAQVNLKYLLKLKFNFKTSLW

Structure (SMILES)	MIF's tautomerase activity [1]	genomic DNA cleavage in human cortical neurons treated with human α-syn PFF (human cortical neurons [2])	ABT-888 sensitive PARP activity (PARP-1)	cell death in human cortical neurons treated with human α-syn PFF (human cortical neurons [3])	genomic DNA cleavage in mouse cortical neurons treated with α-syn PFF (mouse cortical neurons)
COc1ccc(CC[C@H]2OC(=O)[C@@H]3CCCCN3C(=O)C(=O)C(C)(C)COC(=O)C=CCCN(C)C(=O)CNC(=O)[C@H](C(C)C)N(C)C(=O)[C@@H](Cc3ccccc3)NC(=O)[C@H](CC(C)C)N(C)C(=O)CCC(=O)Nc3cccc2c3)cc1OC [compound 76]	Neither did they inhibit	–	–	–	–
COc1ccc(CC[C@H]2OC(=O)[C@@H]3CCCCN3C(=O)C(=O)C(C)(C)COC(=O)C=CCCN(C)C(=O)[C@@H]3CCCN3C(=O)[C@H](COC(C)(C)C)N(C)C(=O)C(c3ccccc3)NC(=O)CN(C)C(=O)COc3cccc2c3)cc1OC (stereo partly drawn) [compound 41]	Neither did they inhibit	–	–	–	–
COc1ccc(CC[C@H]2OC(=O)[C@@H]3CCCCN3C(=O)C(=O)C(C)(C)COC(=O)C=CCCN(C)C(=O)[C@@H]3CCCN3C(=O)[C@H](COC(C)(C)C)N(C)C(=O)C(c3ccccc3)NC(=O)[C@H](C)N(C)C(=O)COc3cccc2c3)cc1OC (stereo partly drawn) [compound 56]	Neither did they inhibit	prevented genomic DNA cleavage	failed to inhibit	protected against cell death similar to ABT-888	protected against genomic DNA cleavage
COc1ccc(CC[C@H]2OC(=O)[C@@H]3CCCCN3C(=O)C(=O)C(C)(C)COC(=O)C=CCCN(C)C(=O)[C@@H]3CCCN3C(=O)[C@H](COC(C)(C)C)N(C)C(=O)C(c3ccccc3)NC(=O)[C@H](C)N(C)C(=O)COc3cc(F)cc2c3)cc1OC (mixture of isomers) [compound 121]	–	–	failed to inhibit	–	protected against genomic DNA cleavage
COc1ccc(CC[C@H]2OC(=O)[C@@H]3CCCCN3C(=O)C(=O)C(C)(C)COC(=O)C=CCCN(C)C(=O)[C@H](C)NC(=O)[C@H](C(C)C)N(C)C(=O)[C@@H](Cc3ccccc3)NC(=O)[C@H](CC(C)C)N(C)C(=O)CCC(=O)Nc3cccc2c3)cc1OC [compound 77]	Neither did they inhibit	prevented genomic DNA cleavage	–	protected against cell death similar to ABT-888	–

Source: US20220372014A1, “NEUROPROTECTIVE COMPOUNDS AND METHODS OF USE THEREOF” (The Johns Hopkins University, priority 2019, published 2022)
